Test results published in patent US11612606B2, “8-aminoisoquinoline compounds and uses thereof” (priority 2018, dated 2023).
Counter-ions that a name gives are not always drawn.

Biological target: HPK full length, T165E S171E (Homo sapiens (Human), UniProt Q92918, S171E/T165E)
Experiment: HPK1-FL HTRF enzymatic assay ("HTRF")
Assay type: biochemical
Details: ATP 1 mM, read-out: HPK1 Ki
Description: Assay Principle: HPK-FL enzyme phosphorylates Biotin-SLP-76 substrate in the presence of ATP at […] and varying concentrations of test compound. Product is detected by FRET using Eu-anti-pSLP76 Ab and SA-XL665. Also see www.cisbio.com/HTRF for additional HTRF technology information.
Instrumentation: Echo555 compound dispenser; Agilent Bravo; Perkin Elmer Envision.
To a 384 well Proxiplate with 80 nL compound or DMSO spotted on was added 4 μl/well kinase mix. The mixture was preincubated for 30 minutes and then 4 μl/well substrate mix was added. The solution was incubated for 60 min and then 4 μl/well detection mix was added. The solution was incubated for another 60 min.
Exemplary compounds were tested in the HTRF binding assays.

HPK full length, T165E S171E, sequence (Q92918 whole entry T165E/S171E, looked up): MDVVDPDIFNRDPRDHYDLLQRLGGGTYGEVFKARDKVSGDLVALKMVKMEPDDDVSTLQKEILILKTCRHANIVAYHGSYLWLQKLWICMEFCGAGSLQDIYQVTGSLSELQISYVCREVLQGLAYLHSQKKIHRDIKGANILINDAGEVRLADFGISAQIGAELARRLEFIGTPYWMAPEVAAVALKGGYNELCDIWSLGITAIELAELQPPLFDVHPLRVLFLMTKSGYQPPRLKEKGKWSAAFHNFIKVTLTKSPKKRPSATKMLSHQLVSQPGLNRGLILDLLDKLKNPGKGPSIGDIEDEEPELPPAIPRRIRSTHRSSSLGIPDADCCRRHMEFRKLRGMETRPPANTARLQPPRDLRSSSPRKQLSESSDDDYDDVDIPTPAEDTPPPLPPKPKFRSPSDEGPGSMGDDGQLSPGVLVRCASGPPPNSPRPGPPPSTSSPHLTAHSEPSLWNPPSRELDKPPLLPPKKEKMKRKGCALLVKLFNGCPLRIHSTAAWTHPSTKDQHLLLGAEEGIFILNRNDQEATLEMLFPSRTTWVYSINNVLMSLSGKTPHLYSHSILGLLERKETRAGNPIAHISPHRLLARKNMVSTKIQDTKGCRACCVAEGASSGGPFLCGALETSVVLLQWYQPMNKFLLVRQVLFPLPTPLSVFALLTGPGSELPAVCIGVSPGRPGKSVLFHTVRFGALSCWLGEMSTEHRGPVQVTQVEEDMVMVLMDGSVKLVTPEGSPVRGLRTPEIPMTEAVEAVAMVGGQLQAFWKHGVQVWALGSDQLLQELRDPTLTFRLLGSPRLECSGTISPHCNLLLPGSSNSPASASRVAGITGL

Row | Compound | Ki
1 | CCN1C[C@H](OC(=O)Nc2cc3cc(-c4cnc5c(c4C)NCCO5)c(F)c(N)c3cn2)CC1=O (single isomer, unassigned) [Compound 478a] | 250 pM
2 | CCN1C[C@@H](OC(=O)Nc2cc3cc(-c4cnc5c(c4C)NCCO5)c(F)c(N)c3cn2)CC1=O (single isomer, unassigned) [Compound 478b, (5)-1-Ethyl-5-oxopyrrolidin-3-yl (8-amino-7-fluoro-6-(8-methyl-2,3-dihydro-1H-pyrido[2,3-b][1,4]oxazin-7-yl)isoquinolin-3-yl)carbamate] | < 13 pM
3 | Cc1c(-c2cc3cc(NC(=O)O[C@H]4CC(=O)N(C(C)C)C4)ncc3c(N)c2F)cnc2c1NCCO2 (single isomer, unassigned) [Compound 479a] | 21 pM
4 | Cc1c(-c2cc3cc(NC(=O)O[C@@H]4CC(=O)N(C(C)C)C4)ncc3c(N)c2F)cnc2c1NCCO2 (single isomer, unassigned) [Compound 479b] | < 13 pM
5 | Cc1c(-c2cc3cc(NC(=O)O[C@@H]4CN(C)C(=O)C4(C)C)ncc3c(N)c2F)cnc2c1NCCO2 (single isomer, unassigned) [Compound 480a] | 34 pM
6 | Cc1c(-c2cc3cc(NC(=O)O[C@H]4CN(C)C(=O)C4(C)C)ncc3c(N)c2F)cnc2c1NCCO2 (single isomer, unassigned) [Compound 480b] | 280 pM
7 | Cc1c(-c2cc3cc(NC(=O)O[C@H]4CC(=O)N(C)C4)ncc3c(N)c2F)cnc2c1NCCC2 (single isomer, unassigned) [Compound 481a] | 184 pM
8 | Cc1c(-c2cc3cc(NC(=O)O[C@@H]4CC(=O)N(C)C4)ncc3c(N)c2F)cnc2c1NCCC2 (single isomer, unassigned) [Compound 481b] | 18 pM
9 | Cc1c(-c2cc3cc(NC(=O)O[C@@H]4Cc5nccn5C4)ncc3c(N)c2F)cnc2c1NCCO2 (single isomer, unassigned) [Compound 504a] | < 13 pM
10 | Cc1c(-c2cc3cc(NC(=O)O[C@H]4Cc5nccn5C4)ncc3c(N)c2F)cnc2c1NCCO2 (single isomer, unassigned) [Compound 504b] | 760 pM
11 | Cc1c(-c2cc3cc(NC(=O)OC4C5COCC4CN(C(C)C)C5)ncc3c(N)c2F)cnc2c1NCCO2 (single isomer, unassigned) [Compound 506a] | < 13 pM
12 | Cc1c(-c2cc3cc(NC(=O)OC4C5COCC4CN(CC(F)F)C5)ncc3c(N)c2F)cnc2c1NCCO2 (single isomer, unassigned) [Compound 507a] | < 13 pM
13 | Cc1c(-c2cc3cc(NC(=O)O[C@H]4CCO[C@@H]4C)ncc3c(N)c2F)cnc2c1NCCO2 (single isomer, unassigned) [Compound 510b] | 308 pM
14 | Cc1c(-c2cc3cc(NC(=O)O[C@@H]4CCO[C@@H]4C)ncc3c(N)c2F)cnc2c1NCCO2 (single isomer, unassigned) [Compound 510d] | 16 pM
15 | Cc1c(-c2cc3cc(NC(=O)O[C@@H]4CCC5(CCN(C6COC6)CC5)C4)ncc3c(N)c2F)cnc2c1NCCO2 (single isomer, unassigned) [Compound 511a] | < 13 pM
16 | Cc1c(-c2cc3cc(NC(=O)O[C@H]4CCC5(CCN(C6COC6)CC5)C4)ncc3c(N)c2F)cnc2c1NCCO2 (single isomer, unassigned) [Compound 511b] | 17 pM
17 | CC[C@@H]1COC[C@H]1OC(=O)Nc1cc2cc(-c3cnc4c(c3C)NCCO4)c(F)c(N)c2cn1 (single isomer, unassigned) [Compound 515a] | 105 pM
18 | CC[C@H]1COC[C@@H]1OC(=O)Nc1cc2cc(-c3cnc4c(c3C)NCCO4)c(F)c(N)c2cn1 (single isomer, unassigned) [Compound 515b] | 17 pM

Row | Compound | Ki
19 | Cc1c(-c2cc3cc(NC(=O)O[C@H]4COC[C@@H]4C4CC4)ncc3c(N)c2F)cnc2c1NCCO2 (single isomer, unassigned) [Compound 516a] | 31 pM
20 | Cc1c(-c2cc3cc(NC(=O)O[C@@H]4COC[C@H]4C4CC4)ncc3c(N)c2F)cnc2c1NCCO2 (single isomer, unassigned) [Compound 516b] | < 13 pM
21 | Cc1c(-c2cc3cc(NC(=O)O[C@@H]4CCOC4)ncc3c(N)c2F)cnc2c1NC[C@@H](F)O2 (single isomer, unassigned) [Compound 518a] | 69 pM
22 | Cc1c(-c2cc3cc(NC(=O)O[C@@H]4CCOC4)ncc3c(N)c2F)cnc2c1NC[C@H](F)O2 (single isomer, unassigned) [Compound 518b] | 44 pM
23 | Cc1c(-c2cc3cc(NC(=O)O[C@H](C)CN(C)C)ncc3c(N)c2F)cnc2c1NCCO2 (single isomer, unassigned) [Compound 523a] | 850 pM
24 | Cc1c(-c2cc3cc(NC(=O)O[C@@H](C)CN(C)C)ncc3c(N)c2F)cnc2c1NCCO2 (single isomer, unassigned) [Compound 523b, (5)-1-(Dimethylamino)propan-2-yl (8-amino-7-fluoro-6-(8-methyl-2,3-dihydro-1H-pyrido[2,3-b][1,4]oxazin-7-yl)isoquinolin-3-yl)carbamate] | 8750 pM
25 | Cc1c(-c2cc3cc(NC(=O)O[C@H](C)CO)ncc3c(N)c2F)cnc2c1NCCO2 (single isomer, unassigned) [Compound 530a] | 260 pM
26 | Cc1c(-c2cc3cc(NC(=O)O[C@@H](C)CO)ncc3c(N)c2F)cnc2c1NCCO2 (single isomer, unassigned) [Compound 530b, (5)-1-Hydroxypropan-2-yl (8-amino-7-fluoro-6-(8-methyl-2,3-dihydro-1H-pyrido[2,3-b][1,4]oxazin-7-yl)isoquinolin-3-yl)carbamate] | 110 pM
27 | Cc1c(-c2cc3cc(NC(=O)OC4CN(C(=O)[C@H]5C[C@@H]5F)C4)ncc3c(N)c2F)cnc2c1NCCC2 (single isomer, unassigned) [Compound 531a] | 55 pM
28 | Cc1c(-c2cc3cc(NC(=O)OC4CN(C(=O)[C@@H]5C[C@H]5F)C4)ncc3c(N)c2F)cnc2c1NCCC2 (single isomer, unassigned) [Compound 531b] | 152 pM
29 | Cc1c(-c2cc3cc(NC(=O)O[C@@H]4CC[C@@](C)(O)C4)ncc3c(N)c2F)cnc2c1NCCO2 (single isomer, unassigned) [Compound 533a, hydrochloride] | 35 pM
30 | Cc1c(-c2cc3cc(NC(=O)O[C@H]4CC[C@](C)(O)C4)ncc3c(N)c2F)cnc2c1NCCO2 (single isomer, unassigned) [Compound 533b, hydrochloride] | 59 pM
31 | Cc1c(-c2cc3cc(NC(=O)O[C@H]4CC[C@@](C)(O)C4)ncc3c(N)c2F)cnc2c1NCCO2 (single isomer, unassigned) [Compound 533c, hydrochloride] | 14 pM
32 | Cc1c(-c2cc3cc(NC(=O)O[C@@H]4CC[C@](C)(O)C4)ncc3c(N)c2F)cnc2c1NCCO2 (single isomer, unassigned) [Compound 533d, hydrochloride] | 15 pM
33 | Cc1c(-c2cc3cc(NC(=O)O[C@@H]4COC[C@H]4C#N)ncc3c(N)c2F)cnc2c1NCCO2 (single isomer, unassigned) [Compound 538a] | 58 pM
34 | Cc1c(-c2cc3cc(NC(=O)O[C@H]4COC[C@@H]4C#N)ncc3c(N)c2F)cnc2c1NCCO2 (single isomer, unassigned) [Compound 538b] | 16 pM
35 | Cc1c(N)cncc1-c1cc2cc(NC(=O)O[C@H]3COC[C@@H]3C)ncc2c(N)c1F (single isomer, unassigned) [Compound 544a] | 138 pM
36 | Cc1c(N)cncc1-c1cc2cc(NC(=O)O[C@@H]3COC[C@H]3C)ncc2c(N)c1F (single isomer, unassigned) [Compound 544b] | 2700 pM
